Assay results published in US20240124460A1, “METHODS AND COMPOSITIONS FOR TARGETED PROTEIN DEGRADATION” (Ranok Therapeutics (Hangzhou) Co. Ltd., priority 2020, published 2024).

Experiments:
ERBB2 = ERBB2 (HER2) flow cytometry protein degradation assay in BT-474 cells; type: cell-based, human; settings: DC50, BT-474 cells, 24 hr
How it was run: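 BT-474 cells trypsinised after compound treatment and stained with PE-conjugated anti-ERBB2 antibody, 30 min at 25° C in the dark, then fixed in 1% paraformaldehyde for flow cytometry. % inhibition = 100−(D−B)/(S−B)*100, using treated, untreated-stained and unstained cell fluorescence.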

[1] = test system: MV-4-11 human acute myeloid leukemia; assay: MV-4-11 CCK-8 proliferation assay; type: cell-based; settings: Homo sapiens, MV4-11; MV-4-11 cells, 72 hr
How it was run: (§1)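 Inhibition is derived from CCK-8 absorbance of compound-treated cells relative to DMSO-treated cells, after subtracting a cell-free medium/DMSO background. Test concentrations span 20 μM down to 1.02 nM in 3-fold steps, and lines are cultured as ATCC recommends.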

HSP90α protein = target: T1, HSP90α protein (Homo sapiens, UniProt P07900); assay: HSP90α-binding FP (FITC) assay; settings: FP competition with FITC-geldanamycin
T1 construct: purchased BPS Bioscience #50298
Procedure: Binding of test compounds to HSP90α protein was measured by fluorescent polarization (FP) using the HSP90α (N-terminal) Assay Kit (BPS Bioscience, #50298), following the manufacturer's instructions, except as noted. Fluorescently labeled HSP90-binding compounds, either the provided FITC-geldanamycin (5 nM final concentration) or RNK04010, a triazolone-based HSP90 binding small molecule labeled with BODIPY through a piperazine-phenyl linker (5 nM final concentration) were employed. A 2.5-fold serial dilution of each test compound ranging from 20 μM to 5.2 nM was assayed for binding to HSP90α. After the final step of adding HSP90α protein to each assay well, plates were mixed by brief shaking, incubated at 25° C. for 120 min for FITC-geldanamycin or 300 min for RNK04010, and fluorescence was measured using a PerkinElmer EnVision Plate Reader.

[2] = test system: U-87 MG human glioblastoma; assay: U87 MG CCK-8 proliferation assay; type: cell-based; settings: Homo sapiens, U-87 MG, 72 h, U-87 MG cells, read-out: U87MG CCK-8
How it was run: as §1

Row | EC50 [1] | IC50 (HSP90α protein) | EC50 [2] | SMILES | ERBB2 degradation (ERBB2)
1 | 0.1 to 1 µM | < 0.1 µM | > 1 µM | CCOc1cc(N2CCC(OCC(=O)N3CCN(Cc4ccc(-n5c(O)nnc5-c5cc(C(C)C)c(O)cc5O)cc4)CC3)CC2)ccc1Nc1ncc2c(n1)N(C)c1ccccc1C(=O)N2C [Compound 001, 2-((4-(4-(2-(4-(4-(3-(2,4-dihydroxy-5-isopropylphenyl)-5-hydroxy-4H-1,2,4-triazol-4-yl)benzyl)piperazin-1-yl)-2-oxoethoxy)piperidin-1-yl)-2-ethoxyphenyl)amino)-5,11-dimethyl-5H-benzo[e]pyrimido[5,4-b][1,4]diazepin-6(11H)-one] | C (DC50 > 1000 nM)
2 | < 0.1 µM | < 0.1 µM | 0.1 to 1 µM | CCOc1cc(N2CCC(OCC(=O)NCCOCCN3CCN(Cc4ccc(-n5c(O)nnc5-c5cc(C(C)C)c(O)cc5O)cc4)CC3)CC2)ccc1Nc1ncc2c(n1)N(C)c1ccccc1C(=O)N2C [Compound 002, N-(2-(2-(4-(4-(3-(2,4-dihydroxy-5-isopropylphenyl)-5-hydroxy-4H-1,2,4-triazol-4-yl)benzyl)piperazin-1-yl)ethoxy)ethyl)-2-((1-(4-((5,11-dimethyl-6-oxo-6,11-dihydro-5H-benzo[e]pyrimido[5,4-b][1,4]diazepin-2-yl)amino)-3-ethoxyphenyl)piperidin-4-yl)oxy)acetamide] | B (DC50 = 100-1000 nM)
3 | 0.1 to 1 µM | 0.1 to 1 µM | > 1 µM | CCOc1cc(N2CCC(C(=O)NCC3CCN(C(=O)C4CCN(Cc5ccc(-n6c(O)nnc6-c6cc(CC)c(O)cc6O)cc5)CC4)CC3)CC2)ccc1Nc1ncc2c(n1)N(C)c1ccccc1C(=O)N2C [Compound 011, 1-(4-((5,11-dimethyl-6-oxo-6,11-dihydro-5H-benzo[e]pyrimido[5,4-b][1,4]diazepin-2-yl)amino)-3-ethoxyphenyl)-N-((1-(1-(4-(3-(5-ethyl-2,4-dihydroxyphenyl)-5-hydroxy-4H-1,2,4-triazol-4-yl)benzyl)piperidine-4-carbonyl)piperidin-4-yl)methyl)piperidine-4-carboxamide] | –
4 | 0.1 to 1 µM | 0.1 to 1 µM | > 1 µM | CCOc1cc(N2CCC(C(=O)NCC3CCN(C(=O)C4CCN(Cc5ccc(-n6c(O)nnc6-c6cc(CC)c(O)cc6O)cc5)CC4)C3)CC2)ccc1Nc1ncc2c(n1)N(C)c1ccccc1C(=O)N2C (centres unmarked) [Compound 012, 1-(4-((5,11-dimethyl-6-oxo-6,11-dihydro-5H-benzo[e]pyrimido[5,4-b][1,4]diazepin-2-yl)amino)-3-ethoxyphenyl)-N-((1-(1-(4-(3-(5-ethyl-2,4-dihydroxyphenyl)-5-hydroxy-4H-1,2,4-triazol-4-yl)benzyl)piperidine-4-carbonyl)pyrrolidin-3-yl)methyl)piperidine-4-carboxamide] | –
5 | < 0.1 µM | 0.1 to 1 µM | 0.1 to 1 µM | CCOc1cc(N2CCC(C(=O)NCCOCCOc3ccc(-n4c(O)nnc4-c4cc(C(C)C)c(O)cc4O)cc3)CC2)ccc1Nc1ncc2c(n1)N(C)c1ccccc1C(=O)N2C [Compound 015, N-(2-(2-(4-(3-(2,4-dihydroxy-5-isopropylphenyl)-5-hydroxy-4H-1,2,4-triazol-4-yl)phenoxy)ethoxy)ethyl)-1-(4-((5,11-dimethyl-6-oxo-6,11-dihydro-5H-benzo[e]pyrimido[5,4-b][1,4]diazepin-2-yl)amino)-3-ethoxyphenyl)piperidine-4-carboxamide] | –
6 | < 0.1 µM | 0.1 to 1 µM | 0.1 to 1 µM | CCOc1cc(N2CCC(C(=O)NCCOCCOCCOc3ccc(-n4c(O)nnc4-c4cc(C(C)C)c(O)cc4O)cc3)CC2)ccc1Nc1ncc2c(n1)N(C)c1ccccc1C(=O)N2C [Compound 016, N-(2-(2-(2-(4-(3-(2,4-dihydroxy-5-isopropylphenyl)-5-hydroxy-4H-1,2,4-triazol-4-yl)phenoxy)ethoxy)ethoxy)ethyl)-1-(4-((5,11-dimethyl-6-oxo-6,11-dihydro-5H-benzo[e]pyrimido[5,4-b][1,4]diazepin-2-yl)amino)-3-ethoxyphenyl)piperidine-4-carboxamide] | –
7 | < 0.1 µM | 0.1 to 1 µM | > 1 µM | CCOc1cc(N2CCC(C(=O)NCCOCCOCCOc3ccc(-n4c(O)nnc4-c4cc(CC)c(O)cc4O)cc3)CC2)ccc1Nc1ncc2c(n1)N(C)c1ccccc1C(=O)N2C [Compound 017, 1-(4-((5,11-dimethyl-6-oxo-6,11-dihydro-5H-benzo[e]pyrimido[5,4-b][1,4]diazepin-2-yl)amino)-3-ethoxyphenyl)-N-(2-(2-(2-(4-(3-(5-ethyl-2,4-dihydroxyphenyl)-5-hydroxy-4H-1,2,4-triazol-4-yl)phenoxy)ethoxy)ethoxy)ethyl)piperidine-4-carboxamide] | –
8 | > 1 µM | > 1 µM | > 1 µM | CCOc1cc(N2CCC(C(=O)N3CCC(N4CCN(C(=O)O[C@H]5CC[C@H](Nc6cc(-n7nc(C(F)(F)F)c8c7CC(C)(C)CC8=O)ccc6C(N)=O)CC5)CC4)CC3)CC2)ccc1Nc1ncc2c(n1)N(C)c1ccccc1C(=O)N2C [Compound 125, (1R,4R)-4-((2-carbamoyl-5-(6,6-dimethyl-4-oxo-3-(trifluoromethyl)-4,5,6,7-tetrahydro-1H-indazol-1-yl)phenyl)amino)cyclohexyl 4-(1-(1-(4-((5,11-dimethyl-6-oxo-6,11-dihydro-5H-benzo[e]pyrimido[5,4-b][1,4]diazepin-2-yl)amino)-3-ethoxyphenyl)piperidine-4-carbonyl)piperidin-4-yl)piperazine-1-carboxylate] | –
9 | < 0.1 µM | 0.1 to 1 µM | 0.1 to 1 µM | CCOc1cc(N2CCC(C(=O)N3CCC(CN4CCN(C(=O)c5ccc(-n6c(O)nnc6-c6cc(C(C)C)c(O)cc6O)cc5)CC4)CC3)CC2)ccc1Nc1ncc2c(n1)N(C)c1ccccc1C(=O)N2C [Compound 126, 2-((4-(4-(4-((4-(4-(3-(2,4-dihydroxy-5-isopropylphenyl)-5-hydroxy-4H-1,2,4-triazol-4-yl)benzoyl)piperazin-1-yl)methyl)piperidine-1-carbonyl)piperidin-1-yl)-2-ethoxyphenyl)amino)-5,11-dimethyl-5,11-dihydro-6H-benzo[e]pyrimido[5,4-b][1,4]diazepin-6-one] | –
10 | 0.1 to 1 µM | 0.1 to 1 µM | 0.1 to 1 µM | CCOc1cc(N2CCC(C(=O)N3CCC(CN4CCN(C(=O)c5ccc(-n6c(O)nnc6-c6cc(C(C)C)c(O)cc6O)cc5)CC4)CC3)CC2)ccc1Nc1ncc2c(n1)N(S(C)(=O)=O)c1ccccc1C(=O)N2C [Compound 127, 2-((4-(4-(4-((4-(4-(3-(2,4-dihydroxy-5-isopropylphenyl)-5-hydroxy-4H-1,2,4-triazol-4-yl)benzoyl)piperazin-1-yl)methyl)piperidine-1-carbonyl)piperidin-1-yl)-2-ethoxyphenyl)amino)-5-methyl-11-(methylsulfonyl)-5,11-dihydro-6H-benzo[e]pyrimido[5,4-b][1,4]diazepin-6-one] | –
11 | 0.1 to 1 µM | 0.1 to 1 µM | > 1 µM | CCOc1cc(N2CCC(C(=O)N3CCC(CN4CCC(COc5ccc(Nc6cc(-n7nc(C(F)(F)F)c8c7CC(C)(C)CC8=O)ccc6C(N)=O)cc5)CC4)CC3)CC2)ccc1Nc1ncc2c(n1)N(C)c1ccccc1C(=O)N2C [Compound 129, 4-(6,6-dimethyl-4-oxo-3-(trifluoromethyl)-4,5,6,7-tetrahydro-1H-indazol-1-yl)-2-((4-((1-((1-(1-(4-((5,11-dimethyl-6-oxo-6,11-dihydro-5H-benzo[e]pyrimido[5,4-b][1,4]diazepin-2-yl)amino)-3-ethoxyphenyl)piperidine-4-carbonyl)piperidin-4-yl)methyl)piperidin-4-yl)methoxy)phenyl)amino)benzamide] | –
12 | 0.1 to 1 µM | > 1 µM | > 1 µM | CCOc1cc(N2CCC(C(=O)N3CCC(CN4CCN(CCOc5ccc(Nc6cc(-n7nc(C(F)(F)F)c8c7CC(C)(C)CC8=O)ccc6C(N)=O)cc5)CC4)CC3)CC2)ccc1Nc1ncc2c(n1)N(C)c1ccccc1C(=O)N2C [Compound 130, 4-(6,6-dimethyl-4-oxo-3-(trifluoromethyl)-4,5,6,7-tetrahydro-1H-indazol-1-yl)-2-((4-(2-(4-((1-(1-(4-((5,11-dimethyl-6-oxo-6,11-dihydro-5H-benzo[e]pyrimido[5,4-b][1,4]diazepin-2-yl)amino)-3-ethoxyphenyl)piperidine-4-carbonyl)piperidin-4-yl)methyl)piperazin-1-yl)ethoxy)phenyl)amino)benzamide] | –
13 | 0.1 to 1 µM | > 1 µM | > 1 µM | CCOc1cc(N2CCC(C(=O)NCCOCCOCCOCCOc3ccc(Nc4cc(-n5nc(C(F)(F)F)c6c5CC(C)(C)CC6=O)ccc4C(N)=O)cc3)CC2)ccc1Nc1ncc2c(n1)N(C)c1ccccc1C(=O)N2C [Compound 132, N-(2-(2-(2-(2-(4-((2-carbamoyl-5-(6,6-dimethyl-4-oxo-3-(trifluoromethyl)-4,5,6,7-tetrahydro-1H-indazol-1-yl)phenyl)amino)phenoxy)ethoxy)ethoxy)ethoxy)ethyl)-1-(4-((5,11-dimethyl-6-oxo-6,11-dihydro-5H-benzo[e]pyrimido[5,4-b][1,4]diazepin-2-yl)amino)-3-ethoxyphenyl)piperidine-4-carboxamide] | –
